Changes are numbered by the printed parent chain. In names and notes the source's numbering stands.
B1: KOD Y7A: modified DNA polymerase derived from Thermococcus kodakaraensis KOD1 with Y7A (protein, listed as Thermococcus kodakaraensis)
chain: MILDTDAITEDGKPVIRIFKKENGEFKIEYDRTFEPYFYALLKDDSAIEEVKKITAERHGTVVTVKRVEKVQKKFLGRPVEVWKLYFTHPQDVPAIRDKIREHPAVIDIYEYDIPFAKRYLIDKGLVPMEGDEELKMLAFDIETLYHEGEEFAEGPILMISYADEEGARVITWKNVDLPYVDVVSTEREMIKRFLRVVKEKDPDVLITYNGDNFDFAYLKKRCEKLGINFALGRDGSEPKIQRMGDRFAVEVKGRIHFDLYPVIRRTINLPTYTLEAVYEAVFGQPKEKVYAEEITTAWETGENLERVARYSMEDAKVTYELGKEFLPMEAQLSRLIGQSLWDVSRSSTGNLVEWFLLRKAYERNELAPNKPDEKELARRRQSYEGGYVKEPERGLWENIVYLDFRSLYPSIIITHNVSPDTLNREGCKEYDVAPQVGHRFCKDFPGFIPSLLGDLLEERQKIKKKMKATIDPIERKLLDYRQRAIKILANSYYGYYGYARARWYCKECAESVTAWGREYITMTIKEIEEKYGFKVIYSDTDGFFATIPGADAETVKKKAMEFLKYINAKLPGALELEYEGFYKRGFFVTKKKYAVIDEEGKITTRGLEIVRRDWSEIAKETQARVLEALLKDGDVEKAVRIVKEVTEKLSKYEVPPEKLVIHEQITRDLKDYKATGPHVAVAKRLAARGVKIRPGTVISYIVLKGSGRIGDRAIPFDEFDPTKHKYDAEYYIENQVLPAVERILRAFGYRKEDLRYQKTRQVGLSAWLKPKGT
B2: KOD V93Q: modified KOD DNA polymerase with V93Q (protein, listed as Thermococcus kodakaraensis)
chain: B1 chain with A7Y, V93Q
B3: KOD V93R: modified KOD DNA polymerase with V93R (protein, listed as Thermococcus kodakaraensis)
chain: B1 chain with A7Y, V93R
B4: KOD P36R: modified KOD DNA polymerase with P36R (protein, listed as Thermococcus kodakaraensis)
chain: B1 chain with A7Y, P36R
B5: KOD P36H/V93K: modified KOD DNA polymerase with P36H and V93K (protein, listed as Thermococcus kodakaraensis)
chain: B1 chain with A7Y, P36H, V93K
B6: KOD P36H: modified KOD DNA polymerase with P36H (protein, listed as Thermococcus kodakaraensis)
chain: B1 chain with A7Y, P36H
B7: KOD V93K: modified KOD DNA polymerase with V93K (protein, listed as Thermococcus kodakaraensis)
chain: B1 chain with A7Y, V93K

Columns and labels:
[1] = tested on: human genomic DNA (about 1.3 kb) with dUTP added; test: Evaluation of uracil (dUTP) sensitivity by PCR with dUTP added to the reaction; type: biochemical; details: for Evaluation of dUTP resisitance on a 11-point scale: closer to 0 = stronger sensitivity to dUTP, closer to 10 = lower sensitivity, summary of Examples 1 to 3; for dUTP resistance: dUTP added to 0.5, 5, 50, 100, 200 μM, about 1.3 kb, 30 cycles, 1 U enzyme; for PCR products on addition of dUTP: some amount of dUTP added
Outline: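 Uracil sensitivity is judged by whether a roughly 1.3 kb band still appears on ethidium bromide-stained agarose gel. Tolerated dUTP was tested at final 0.5 to 200 μM (0.5, 5, 50, 100, 200 μM), using 10 ng human genomic DNA, 1 U enzyme, 0.2 mM dNTPs and 1.5 mM MgSO4 in KOD-Plus-Ver. 2 buffer. Cycling: 94° C for 30 s, then 30 cycles of 98° C/65° C/68° C.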

482 bp of human β-globin = test: PCR amplification of 482 bp of human β-globin with dUTP in place of dTTP; type: biochemical; design: key to Results of PCR in the presence of dUTP 481 bp: A: Amplified; B: Amplified (faint band); C: Not amplified; details: for Results of PCR in the presence of dUTP 481 bp: dTTP replaced by dUTP, 35 cycles; for PCR amplification of 482 bp with dUTP: 100% dUTP instead of dTTP (FIGS. 5 to 8)
Outline: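 482 bp human β-globin amplified from 10 ng human genomic DNA with 1 U enzyme premixed with KOD antibody, using 0.2 mM dNTPs with either dTTP or dUTP, 1.5 mM MgSO4, 15 pmol primers. Cycling: 94 °C 2 min, then 35 cycles of 98 °C 10 s, 68 °C 1 min; products analysed by MultiNA DNA-1000 microchip electrophoresis.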

Molecule | Evaluation of dUTP resisitance on a 11-point scale [1] | dUTP resistance [1] | Results of PCR in the presence of dUTP 481 bp (482 bp of human β-globin) | PCR amplification of 482 bp with dUTP (482 bp of human β-globin) | PCR amplification of 482 bp with dUTP (482 bp of human β-globin; listed as V93K/Y7A) | PCR products on addition of dUTP [1]
KOD N210D/Y7A/P115Δ: KOD N210D (exo(−)) mutant with Y7A and lacking P115 | 0 | 0 µM | C |  |  | 
KOD N210D/Y7A/V93K: KOD N210D (exo(−)) mutant with Y7A and V93K | 10 | >200 µM | A |  |  | 
KOD N210D/Y7A: KOD N210D (exo(−)) mutant with Y7A | 2 | 5 µM | C |  |  | 
KOD P36R/V93K: modified KOD DNA polymerase with P36R and V93K | 0 | 0 µM | C |  |  | 
KOD P115Δ: modified KOD DNA polymerase lacking P115 | 0 | 0 µM | C |  |  | 
KOD Y7A/P36H: modified KOD DNA polymerase with Y7A and P36H | 8 | >200 µM | A | allowed for PCR amplification |  | 
KOD Y7A/P36R: modified KOD DNA polymerase with Y7A and P36R | 7 | >200 µM | A | allowed for PCR amplification |  | 
KOD Y7A/P115Δ: modified KOD DNA polymerase with Y7A and lacking P115 | 0 | 0 µM | C |  |  | 
KOD Y7A/V93K: modified KOD DNA polymerase with Y7A and V93K | 8 | >200 µM | A | allowed for PCR amplification | greatly improve the amplification amount, compared to V93K | 
B1 | 2 | 0.5 µM | C | not PCR-amplified |  | PCR products were confirmed
B2 | 3 | 100 µM | A |  |  | PCR products were confirmed
B3 | 5 | >200 µM | A |  |  | PCR products were confirmed
B4 | 5 | >200 µM | A |  |  | PCR products were confirmed
B5 | 7 | >200 µM | A |  |  | 
B6 | 5 | >200 µM | A |  |  | PCR products were confirmed
B7 | 6 | >200 µM | A |  |  | PCR products were confirmed
